According to patent US11433038B2, “High concentration medicant solutions for treating neurological disorders” (Cerebral Therapeutics, Inc., priority 2017, dated 2022):
“Also recorded” adds a separate entry of the source. Counter-ions that a name gives are not always drawn.

Key:
[1] = solubility of sodium valproate in water; conditions: early emulsion experiments
[2] = pH of aqueous sodium valproate solutions; format: physicochemical
[3] = system: human subjects; experiment: subject-reported effects during direct brain (CSF) administration of valproate; format: in vivo
[4] = valproate concentration in blood serum and cerebrospinal fluid after administration was stopped (FIG. 1-3); format: in vivo; conditions: human subjects, FIG. 2
[5] = reported solubility limit; cited from earlier work
[6] = pH titration of sodium valproate solutions (5 mL) with 25 mM HCl (FIG. 7)
[7] = on the order of; cited from earlier work
[8] = 150 mg/mL sodium valproate, 5 mL, 25 mM HCl
[9] = 0.4% sodium citrate (13.6 mM) in 150 mg/mL (0.9 M) sodium valproate

For `CCCC(CCC)C(=O)O` [valproic acid], the “behaviour of emulsified droplets of pure valproic acid (liquid) in water” value [1] was “dissolving into the water”.

For `CCCC(CCC)C(=O)[O-].[Na+]` [sodium valproate], the pH of solution ([2]; 150 mg/mL sodium valproate in water) was “approximately 8.3”, the pH of solution ([2]; more concentrated solutions (>350 mg/mL)) was “above 9” and the “perception of body temperature” value ([3]; human subjects receiving valproate to the brain) was “always cold”. For the same compound, the “nausea at therapeutic level” value ([3]; human subjects, on reaching a therapeutic level) was “feeling of nauseous which seems to pass over time”, the “concentration in cerebrospinal fluid over time” value [4] was “drops quickly” and the “solubility limits in water, commonly reported” value [5] was 50 to 100 mg/mL. For the same compound, the “volume of 25 mM HCl at which the pH hits the pKa” value ([6]; 10 mM sodium valproate, 5 mL) was 0.6 mL, the “pH at start of titration” value ([6]; 10 mM sodium valproate, 5 mL, before acid) was 6.6 and the “pH after 0.6 mL of acid” value ([6]; 10 mM sodium valproate, 5 mL, 0.6 mL of 25 mM HCl) was 4.81. The “pH after 0.7 mL of acid” value ([6]; 10 mM sodium valproate, 5 mL, 0.7 mL of 25 mM HCl) was 4.74, the “pH after 1 mL of acid” value ([6]; 10 mM sodium valproate, 5 mL, 1 mL of 25 mM HCl added in 0.1 mL increments) was 4.36 and the “change in pH on titration” value ([6]; 150 mg/mL sodium valproate) was “minimal”. For the same compound, the “pH at last point of titration curve” value [6, 8] was 7.30, the “pH at second-to-last point of titration curve” value [6, 8] was 7.34 and the “buffering of concentrated solutions” value ([6]; concentrated solutions of sodium valproate) was “strongly buffer solutions at pH>8”.

In the case of `NCC(CC(=O)O)c1ccc(Cl)cc1` (stereo not shown) [Baclofen], the half-life [7] is listed as “five”.

With `O=C(O)CC(O)(CC(=O)O)C(=O)O` [sodium citrate] the “effect of sodium citrate on buffer capacity” value [6, 9] was “does not provide any measurable increase in buffering capacity above pH 7; also recorded: virtually no effect” and the “effect of sodium citrate on initial pH” value [6, 9] was “nor does it significantly change the initial pH”.
